4 molecules from article PMC6270304, “Synthesis, Structure and Cytotoxic Activity of New Acetylenic Derivatives of Betulin” (Molecules, 2013) can be followed below.

Values after ≈ are worked out from the molar mass of the structure shown.

In data set [1] the test system is investigated cancer cell lines (T47D, CCRF/CEM, SW707, P388, Balb3T3). The data set is described as follows: cells. Format: cell-based, human and murine. On the procedure:
(§1) Cytotoxic activities of all newly synthesized compounds including betulin (1) were tested in SRB or MTT (in the case of leukemia cells) assay for their antiproliferative activity in vitro against three human cancer cell lines: SW707 (colorectal adenocarcinoma), CCRF/CEM (leukemia), T47D (breast cancer), and murine leukemia P388 as well as Balb3T3 normal fibroblasts cell lines. […] A value of less than 4 μg/mL was considered as an antiproliferative activity criterion for synthetic compounds [31].
(§2) The following established in vitro cell lines were applied: SW707 (human colorectal adenocarcinoma), CCRF/CEM (human leukemia), T47D (human breast cancer), P388 (mouse leukemia) and Balb3T3 (normal mouse fibroblasts). All lines were obtained from the American Type Culture Collection (Rockville, MD, USA) and maintained at the Cell Culture Collection of the Institute of Immunology and Experimental Therapy (Wroclaw, Poland).
(§3) Twenty-four hours before addition of the tested agents, the cells were plated in 96-well plates (Sarstedt, Numbrecht, Germany) at a density of 10^4 cells per well in 100 μL of culture medium. The cells were cultured in the opti-MEM medium supplemented with 2 mM glutamine (Gibco, Grand Island, NY, USA), streptomycin (50 μg/mL), penicillin (50 U/mL) (both antibiotics from Polfa, Tarchomin, Poland) and 5% fetal calf serum (Gibco). The cell cultures were maintained at 37 °C in humid atmosphere saturated with 5% CO2.
(§4) The compounds were dissolved in DMSO and culture medium (1:9) to the concentration of 1 mg/mL, and subsequently diluted in culture medium to reach the required concentrations (ranging from […]).
(§5) The in vitro cytotoxic effect of all agents was examined using the SRB assay for adherent cells and MTT assay for leukemia cells as described by Wietrzyk et al.. Each compound in given concentration was tested in triplicates in each experiment, which was repeated 3–5 times.

Data set [2] deals with CCRF/CEM (human leukemia). The data set is described as follows: Antiproliferative assay in vitro (MTT). Format: cell-based. As to conditions: Homo sapiens, CCRF-CEM, read-out: Cytotoxic activity IC50, Human CCRF/CEM. On the procedure: as §1, §2, §3, §4, §5
The test system of data set [3] is P388 (mouse leukemia). The data set is described as follows: Antiproliferative assay in vitro (MTT). Format: cell-based. The conditions noted are these: for IC50: Mus musculus, P388, read-out: Cytotoxic activity IC50, Murine P388. The procedure:
as §1, §2, §3, §4, §5

Data set [4] concerns Balb3T3 (normal mouse fibroblasts). The data set is described as follows: Antiproliferative assay in vitro (SRB). The format is cell-based. The procedure: as §1, §2, §3, §4, §5
The subject of data set [5] is T47D (human breast cancer). As to the kind of experiment: Antiproliferative assay in vitro (SRB). The conditions noted are these: for IC50: Homo sapiens, T47D, read-out: Cytotoxic activity IC50, Human T47D. Format: cell-based. On the procedure:
as §1, §2, §3, §4, §5

Data set [6] deals with SW707 (human colorectal adenocarcinoma). The data set is described as follows: Antiproliferative assay in vitro (SRB). The format is cell-based. As to conditions: for IC50: Homo sapiens, SW707, read-out: Cytotoxic activity IC50, Human SW707. On the procedure: as §1, §2, §3, §4, §5
Data set [7] is described as follows: Antiproliferative assay in vitro (SRB). The conditions noted are these: mouse; Balb3T3 normal fibroblasts; SRB; Neg = negative in the concentration used; read-out: Cytotoxic activity IC50, Murine Balb3T3. The format is cell-based, mouse. On the procedure: as §1, §2, §3, §4, §5

By melting point is commonly meant the temperature of the solid-liquid transition. `C=C(C)C1CC[C@]2(COC(=O)C#Cc3ccccc3)CC[C@]3(C)C(CCC4[C@@]5(C)CC[C@H](O)C(C)(C)C5CC[C@]43C)C12` (some centres unmarked) [Compound 5b, 28-O-Phenylpropynoylbetulin] had a melting point of 204 to 206 °C. Also, the “cytotoxic activity in words” value in data set [1] is “inactive”. The IC50 in data set [2] stood at 49 ± 9.8 µg/mL (≈ 85.8 µM). Also, the “Cytotoxic activity IC50, Murine P388” value in data set [3] was “Neg”. In addition, the “Cytotoxic activity IC50, Murine Balb3T3” value in data set [4] was “Neg”. Besides, the “Cytotoxic activity IC50, Human T47D” value in data set [5] is reported as “Neg”. Besides, in data set [6], the “Cytotoxic activity IC50, Human SW707” value is on record as “Neg”.
Turning to `C=C(C)[C@@H]1CC[C@]2(CO)CC[C@]3(C)[C@H](CC[C@@H]4[C@@]5(C)CC[C@H](O)C(C)(C)[C@@H]5CC[C@]43C)[C@@H]12` [Compound 1, lup-20(29)-ene-3β,28-diol, reference compound], the IC50 in data set [1] (Mus musculus, all cell lines except leukemia P388, read-out: IC50 values range over investigated cell lines) is 10.9 to 47.3 µg/mL (≈ 24.6 to 107 µM); in data set [2], 10.9 ± 5.5 µg/mL (≈ 24.6 µM); in data set [3], 5.5 ± 3.3 µg/mL (≈ 12.4 µM); in data set [7], 47.3 ± 7.9 µg/mL (≈ 107 µM); in data set [5], 32.4 ± 10.7 µg/mL (≈ 73.2 µM); in data set [6], 22.9 ± 15.4 µg/mL (≈ 51.7 µM). Further, the “selectivity index (SI)” value in data set [3] (ratio IC50 of normal fibroblast (Balb3T3) / IC50 on P388) was 8.6.
The molecule `C=C(C)C1CC[C@]2(COC(=O)C#Cc3ccccc3)CC[C@]3(C)C(CCC4[C@@]5(C)CC[C@H](OC(=O)C#Cc6ccccc6)C(C)(C)C5CC[C@]43C)C12` (some centres unmarked) [Compound 6b, 3,28-O,O'-Di(phenylpropynoyl)betulin] came in with a melting point of 91 to 92 °C. The “cytotoxic activity in words” value in data set [1] was “inactive”. Besides, in data set [2], the IC50 is 66 ± 2.8 µg/mL (≈ 94.4 µM). Further, in data set [3], the “Cytotoxic activity IC50, Murine P388” value is recorded as “Neg”. In addition, the “Cytotoxic activity IC50, Murine Balb3T3” value in data set [4] is given as “Neg”. Besides, in data set [5], the “Cytotoxic activity IC50, Human T47D” value was “Neg”. In addition, the “Cytotoxic activity IC50, Human SW707” value in data set [6] is “Neg”.
Consider `C#CCOC(=O)OC[C@]12CCC(C(=C)C)C1C1CCC3[C@@]4(C)CC[C@H](O)C(C)(C)C4CC[C@@]3(C)[C@]1(C)CC2` (some centres unmarked) [Compound 3a, 28-O-Propargyloxycarbonylbetulin], for which the “cytotoxicity relative to betulin (1)” value in data set [1] is “three to four times more cytotoxic than betulin”. In addition, the IC50 in data set [2] was determined as 3.2 ± 0.4 µg/mL (≈ 6.1 µM); in data set [3] it was 2.9 ± 0.2 µg/mL (≈ 5.53 µM); in data set [5], 7.2 ± 1.7 µg/mL (≈ 13.7 µM); in data set [6], 9.2 ± 7.1 µg/mL (≈ 17.5 µM).
